# From US7884133B2, “Pharmaceutical compositions containing (+) cannabidioil and derivatives thereof and some such novel derivatives” (priority 2003, dated 2011)
# Entries after “also recorded” stand apart in the source; their conditions may differ.
# What was measured:
# female Sabra mice [1] = experiment: Intestinal motility (defecation, number of fecal pellets); type: in vivo; conditions: 20 mg/kg i.p.
# Method: (§1) Defecation was measured as the number of fecal pellets voided in the open field. In some experiments (as indicated below), fecal pellets and body temperature were assessed for a prolonged period (3 hr).
# female Sabra mice [2] = experiment: Tetrad: rearing (vertical movements) in an open field; type: in vivo; conditions: 20 mg/kg i.p.
# Method: (§2) Mice were injected with antagonist 90 minutes before testing and/or with agonist 60 minutes before testing in a series of four assays which reflect central cannabinoid activity [Martin (1991) id. ibid.; modified by Fride, E. and R. Mechoulam (1993) id. ibid.]. This “tetrad” consists of, consecutively, ambulation and rearing in an open field (8 minutes), immobility on an elevated ring of 5 cm diameter (4 minutes), rectal temperature (Yellow
# [3] = test system: CB1−/− receptor knockout mice; experiment: Intestinal motility in CB1−/− receptor knockout mice; type: in vivo; conditions: 20 mg/kg i.p., defecation rate recorded for 3 hours
# Method: Female CB1−/− knockout mice were injected i.p. with (+)-7-OH-CBD-DMH, (+)-CBD-DMH or Δ^9-THC (20 mg/kg). Intestinal motility (defecation rate) was recorded for a period of 3 hours.
# (§3) Female Sabra mice (2-3 months of age) were purchased from Harlan, Israel. Breeding pairs of CB1−/− receptor knockout mice were provided by Prof. A. Zimmer, University Clinic Bonn, Germany.
# as §1
# female Sabra mice [4] = experiment: Tetrad: catalepsy (immobility) on an elevated ring; type: in vivo; conditions: 20 mg/kg i.p., elevated ring 4 min; normalized; * = P<0.05 vs vehicle
# Method: as §2
# female Sabra mice [5] = experiment: Hypothermia (rectal temperature); type: in vivo; conditions: 20 mg/kg i.p., * = P<0.05 vs vehicle
# Method: as §2, §1
# [6] = test system: formalin-induced peripheral pain in mice; experiment: Formalin-induced peripheral pain (second phase); type: in vivo; conditions: formalin 4% in hind footpad, 45 minutes after drug; paw licks over 60 minutes
# Method: Formalin (4%) was injected in the left hind footpad and the number of licks of the injected foot were recorded for each 5 minutes interval for the 60 minutes starting immediately after formalin application.
# (§4) Pain perception on a hot plate, is considered to be mediated by a central mechanism whereas the second, late phase of the response to an implantar injection of formalin reflects inflammatory pain mechanisms [Tjolsen, A. and Hole (1997) id. ibid.].
# (§5) Thus, central pain perception was assessed by the analgesic response on a hot plate (55° C., Columbus Instruments, OH, USA). Peripheral pain was measured by the response to implantar injection of formalin (4%) 45 minutes after injection of the drug.
# female Sabra mice [7] = experiment: Intestinal motility after antagonist pre-treatment (SR141716A, SR144528, capsazepine); type: in vivo; conditions: for reversal of inhibition of defecation by CB1 antagonist SR141716A / reversal of inhibition of defecation by CB2 antagonist SR144528: agonist 20 mg/kg; for reversal of inhibition of defecation by CB1 antagonist SR141716A: SR141716A 1 mg/kg i.p. 30 minutes before agonist; for reversal of inhibition of defecation by CB2 antagonist SR144528: SR144528 1 or 3 mg/kg i.p. 30 minutes before agonist
# Method: (SR1, 1 mg/kg). SR1 was injected (i.p.) 30 minutes before the agonist. 60 minutes after (+)CBD-DMH the number of fecal pellets was recorded.
# (SR2, 1 mg/kg). SR2 was injected (i.p.) 30 minutes before the agonist. 60 minutes after (+)-CBD-DMH the number of fecal pellets was recorded.
# as §2, §1
# female Sabra mice [8] = experiment: Hot plate analgesia (centrally mediated pain); type: in vivo
# Method: as §4, §5
# female Sabra mice [9] = experiment: Tetrad overall (central cannabinoid activity); type: in vivo; conditions: 20 mg/kg i.p., tested 60 minutes later
# Method: Central activity of the compounds of the invention was assessed in the “tetrad”, which is a series of assays commonly used to measure central cannabimimmetic effects [Martin, B. R. et al. (1991) Pharmacol. Biochem. Behav. 40(3): 471-8; Fride, E. and C. Sanudo-Pena (2002) id. ibid.]. Three parameters for peripheral activity were used. Since gastrointestinal transit is regulated locally in the periphery rather than by centrally located CB1 receptors [Izzo (2000) id. ibid.; Landi (2002) id. ibid.], intestinal motility was one of the parameters used, and peripheral cannabinoid effects was measured as rates of defecation (see Example 29).
# as §2
# [10] = test system: arachidonic acid-induced ear inflammation in the mouse; experiment: Arachidonic acid induced inflammation of the external ear; type: in vivo; conditions: for potency compared to indomethacin in ear inflammation, in words: (+)-CBD-DMH 40 or 10 mg/kg vs indomethacin 20 mg/kg
# Method: Ear inflammation was measured by assessing ear tissue swelling after topical application of arachidonic acid, as described previously [Hanus (1999) id. ibid.]. Briefly, at various times after i.p. drug injections, arachidonic acid was applied to the inner surface of one ear (4.5 mg dissolved in […] ethanol). The opposite ear served as control (5 ethanol). Ear thickness was determined (in 0.01-mm units) by using a dial thickness gauge (Mitutoyo, Japan) every 15 minutes for 90 minutes, starting immediately after arachidonic acid application.
# female Sabra mice [11] = experiment: Tetrad: ambulation (horizontal movements) in an open field; type: in vivo; conditions: 20 mg/kg i.p., open field 8 min, 30 or 60 min after injection; normalized; * = P<0.05 vs vehicle
# Method: as §2
# CB2 receptor = CB2 receptor (Homo sapiens, UniProt P34972); conditions: cited from earlier work
# CB1 receptor = CB1 receptor (Rattus norvegicus, UniProt P20272); conditions: cited from earlier work
# [12] = test system: CB1−/− receptor knockout mice; experiment: Central effects in CB1−/− receptor knockout mice; type: in vivo; conditions: not shown
# Method: as §3, §2
# CB1 receptor, sequence (P20272 whole entry): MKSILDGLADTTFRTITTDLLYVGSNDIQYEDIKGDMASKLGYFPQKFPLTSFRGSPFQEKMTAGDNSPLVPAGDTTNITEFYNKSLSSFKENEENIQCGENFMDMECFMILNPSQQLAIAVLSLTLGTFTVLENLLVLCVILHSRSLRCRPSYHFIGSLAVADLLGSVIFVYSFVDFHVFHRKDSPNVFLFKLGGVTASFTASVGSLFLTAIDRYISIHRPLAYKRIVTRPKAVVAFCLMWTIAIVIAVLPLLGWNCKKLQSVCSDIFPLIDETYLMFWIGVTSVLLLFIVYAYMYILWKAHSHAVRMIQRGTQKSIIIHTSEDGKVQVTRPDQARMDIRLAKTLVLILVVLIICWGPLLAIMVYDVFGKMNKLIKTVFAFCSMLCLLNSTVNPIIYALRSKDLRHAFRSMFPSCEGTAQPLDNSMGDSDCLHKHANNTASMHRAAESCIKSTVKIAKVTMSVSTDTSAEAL
# CB2 receptor, sequence (P34972 whole entry): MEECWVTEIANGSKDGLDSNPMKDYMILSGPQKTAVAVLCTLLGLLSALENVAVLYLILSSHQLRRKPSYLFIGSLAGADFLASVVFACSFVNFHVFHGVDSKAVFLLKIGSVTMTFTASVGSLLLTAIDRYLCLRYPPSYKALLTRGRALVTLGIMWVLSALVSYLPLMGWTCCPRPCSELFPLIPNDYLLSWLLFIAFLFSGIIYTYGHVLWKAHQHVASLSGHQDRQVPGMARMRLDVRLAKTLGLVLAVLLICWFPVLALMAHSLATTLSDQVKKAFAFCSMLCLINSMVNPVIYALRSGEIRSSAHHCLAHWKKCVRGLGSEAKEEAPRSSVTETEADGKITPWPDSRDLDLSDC
smiles,measurement,setting,value
"C=C(C)C1CCC(C)=CC1c1c(O)cc(C(C)(C)CCCCCC)cc1O (single isomer, unassigned; (+)) [+CBD−DMH, (+)-CBD-DMH]","inhibition of defecation / intestinal motility, in words",female Sabra mice [1]; 60 minutes after injection,completely blocked
same,Inhibition of Intesitinal Motility (% MPE),"female Sabra mice [1]; defecation in open field 8 min, normalized, * = P<0.05 vs vehicle",100* % MPE
same,"effect on rearing in an open-field, in words",female Sabra mice [2],modest effect
same,Vertical Movements (% MPE),"female Sabra mice [2]; open field 8 min, normalized, * = P<0.05 vs vehicle",61 % MPE
same,effect on intestinal motility in CB1−/− knockout mice,[3],"absence of inhibition of intestinal motility; also recorded: None of the drugs assessed ((+)-CBD-DMH, (+)-7-OH-CBD-DMH and Δ^9-THC had any effect; also recorded: no effects"
same,Catalepsy (Freezing of Movement) (% MPE),female Sabra mice [4],16 % MPE
same,Hypothermia (Δ-Body Temp.),female Sabra mice [5],−0.3 °C
same,"second (inflammatory) phase of formalin-induced pain, in words",[6],completely inhibited the second phase; also recorded: almost completely inhibited; also recorded: almost completely prevented the second phase of pain
same,reversal of inhibition of defecation by CB1 antagonist SR141716A,female Sabra mice [7]; listed as (+) CBD-DMH,almost fully reversed
same,reversal of inhibition of defecation by CB1 antagonist SR141716A,female Sabra mice [7]; listed as (+)-CBD-DMH,effectively antagonized; also recorded: partial reversal
same,reversal of inhibition of defecation by CB2 antagonist SR144528,female Sabra mice [7]; listed as (+) CBD-DMH,not at all
same,reversal of inhibition of defecation by CB2 antagonist SR144528,female Sabra mice [7]; listed as (+)-CBD-DMH,not at all; also recorded: did not prevent; also recorded: no reversal
same,effect of VR1 antagonist capsazepine on inhibition of defecation,female Sabra mice [7]; data not shown,did not affect
same,"centrally mediated pain on hot plate, in words",female Sabra mice [8]; 20 mg/kg,not active; also recorded: not affected
same,Analgesia (Hot Plate) (% MPE),"female Sabra mice [8]; 20 mg/kg i.p., hot plate 55° C., max 45 sec, normalized, * = P<0.05 vs vehicle",10 % MPE
same,"central effects (tetrad), in words",female Sabra mice [9],absence of central effects or small effects; also recorded: Lack of central effects
same,"potency compared to indomethacin in ear inflammation, in words",[10]; listed as (+) CBD-DMH,as effective as indomethacin
same,"potency compared to indomethacin in ear inflammation, in words",[10]; listed as (+)-CBD-DMH,equal potency as indomethacin; also recorded: as potent as indomethacin
same,"potency compared to indomethacin in ear inflammation, in words",[10]; listed as (+)CBD-DMH,Equal potencies
same,"inhibition of arachidonic acid-induced ear inflammation, in words","[10]; i.p., 10 to 40 mg/kg, ear thickness every 15 minutes for 90 minutes",almost completely inhibited
same,Horizontal Movements (% MPE),female Sabra mice [11],82 % MPE
same,Kd,"CB2 receptor; previously reported, Bisogno et al. 2001, read-out: affinity for the CB2 receptor (Kd)",211 nM
same,Ki,"CB2 receptor; second value of CB1/CB2 cell, data from Bisogno et al., 2001, read-out: CB2 Receptor Binding (Ki)",210 nM
same,Ki,"CB1 receptor; first value of CB1/CB2 cell, data from Bisogno et al., 2001, read-out: CB1 Receptor Binding (Ki)",17 nM
same,Kd,"CB1 receptor; previously reported, Bisogno et al. 2001, read-out: affinity for the CB1 receptor (Kd)",17.4 nM
same,central effects in CB1−/− receptor knockout mice,[12],"None of the drugs assessed ((+)-CBD-DMH, (+)-7-OH-CBD-DMH and Δ^9-THC had any effect"
